Measured values as given in patent US4603142A, “Cholesterol lowering method of use” (Wisconsin Alumni Research Foundation, priority 1984, dated 1986).

Legend:
[1] = biological target: T1, β-hydroxy-β-methylglutaryl-CoA reductase (Homo sapiens, UniProt P04035); test: In vitro HMG-CoA reductase activity in isolated hepatocytes of chicken; format: cell-based; settings: incubation 15 minutes; for β-Hydroxy-β Methylglutaryl-CoA Reductase: means of two replicates
T1 construct: ISOLATED HEPATOCYTES OF CHICKEN; endogenous in cells; host or cells: isolated hepatocytes of chicken
T1 sequence (P04035 1-888): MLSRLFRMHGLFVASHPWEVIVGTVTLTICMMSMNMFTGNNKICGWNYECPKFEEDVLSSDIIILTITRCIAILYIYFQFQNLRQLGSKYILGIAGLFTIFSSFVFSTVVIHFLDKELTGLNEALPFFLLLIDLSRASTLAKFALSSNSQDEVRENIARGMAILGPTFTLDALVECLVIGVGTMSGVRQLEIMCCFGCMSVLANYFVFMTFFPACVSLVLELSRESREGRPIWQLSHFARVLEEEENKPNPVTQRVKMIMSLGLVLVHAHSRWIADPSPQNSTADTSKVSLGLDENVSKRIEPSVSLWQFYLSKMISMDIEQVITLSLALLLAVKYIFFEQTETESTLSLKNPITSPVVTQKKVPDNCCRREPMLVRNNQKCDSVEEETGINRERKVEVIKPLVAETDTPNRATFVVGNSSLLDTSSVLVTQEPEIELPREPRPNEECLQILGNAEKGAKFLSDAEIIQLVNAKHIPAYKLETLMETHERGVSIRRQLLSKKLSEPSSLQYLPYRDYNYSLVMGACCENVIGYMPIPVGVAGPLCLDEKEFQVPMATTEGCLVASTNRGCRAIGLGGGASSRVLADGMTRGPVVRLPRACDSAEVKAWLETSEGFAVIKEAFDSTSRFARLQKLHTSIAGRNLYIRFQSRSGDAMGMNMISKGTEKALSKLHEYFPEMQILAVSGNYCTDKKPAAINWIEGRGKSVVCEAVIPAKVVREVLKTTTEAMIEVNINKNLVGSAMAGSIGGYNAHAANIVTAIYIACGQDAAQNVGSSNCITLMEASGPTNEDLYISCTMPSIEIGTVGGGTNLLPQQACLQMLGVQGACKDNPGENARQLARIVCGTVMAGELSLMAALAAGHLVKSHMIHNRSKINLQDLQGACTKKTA
Description: These observed effects on lipogensis and cholesterogenesis could be attributed to the chemical constituents of HPBF, but clearly could not be attributed to the water insoluble plant fibers because they were not present in the latter feeding trials. Moreover, these effects were also obtained in vitro using isolated hepatocytes from chickens and rats. […] Proc. 42:1973 (Abstr.)]. Conditions for the in vitro evaluation of the solvent extracts have been described [Qureshi AA et al. (1983): Inhibition of cholesterol and fatty acid biosynthesis in liver enzymes and chicken hepatocytes by polar fractions of garlic, Lipids 18:343-348].
Cholesterol inhibitor I was re-chromatographed by HPLC and the UV absorption spectrum obtained. Maximum absorption occurred at 292 nm. This purified fraction was used for high resolution mass spectrometric analysis. Several scans were made using ionization temperatures from 90-180 degrees Centigrade to increase the possibility of detecting impurities. The high resolution mass spectrometric analysis and measurements of different peaks gave a molecular ion peak at m/e 424 and main peaks at m/e 385, 205 and 165 corresponding to C29 H44 O2 (molecular formula) C25 H36 O2, C13 H17 O2 and C10 H13 O2 moieties, respectively, which are characteristic fragmentation moieties for d-alpha-tocotrienol. Lemon grass oil is a rich source of d-alpha-tocotrienol. This product and cholesterol inhibitor I at 20 ppm were compared with the petroleum ether soluble fraction of HPBF (20% equivalent HPBF) in a group of older male White Leghorn chickens (Table 3). The results shown on Table 3 confirm those previously recorded for petroleum ether solubles of HPBF and cholestrol inhibitor I. In a final experiment, the effects of cholestrol inhibitor I and lemon grass oil on hepatocyte HMG Co-A reductase and FAS activities were tested. Both components tested in the concentration range 5-100 microgram/ml, produced a concentration-dependent suppression of HMG Co-A reductase and concentration-dependent enhancement of FAS activity (Table 4).
^1 Tenweek-old female chickens were fed standard cornsoy diet. They
were fasted for 48 hrs. and refed 72 hrs. prior to the preparation of
^2 Incubation period was 15 minutes. Values represent means of two
replicates within incubation set.
^3 pmoles of mevalonic acid synthesized per minute per mg of […]

Fatty Acid Synthetase = test: Hepatic fatty acid synthetase activity in 3-week-old broiler male chickens fed supplemented corn diet; format: in vivo, chicken; settings: liver; for Fatty Acid Synthetase: mean ± SD, N = 9
Description: These responses were attributed to the presence in the small grains of relatively high concentrations of beta-D-glucans and pentosans. A long-standing interest in lipid metabolism prompted us to examine certain lipogenic and cholesterolgenic enzymes in the tissues of these birds. Methods used for handling blood samples, preparing subcellular fractions of liver and assay procedures for beta-hydroxy-beta-methylglutaryl coenzyme A (HMG Co-A) reductase, fatty acid synthetase (FAS), plasma cholesterol and triglycerides and the statistical treatment of the data have been described [Qureshi AA et al. (1980): Regulation of lipid metabolism in chicken livers by dietary cereals, J Nutr 110:388-393].
For large scale preparation of these compounds, 10 grams of the petroleum ether soluble fraction of HPBF were dissolved in 10 ml petroleum ether and applied to a 90×3.5 cm silicic acid column (Bio-Silica, 100-200 mesh). The column was washed with 2,500 ml petroleum ether followed by stepwise elution with increasing amounts of ether in petroleum ether. Fraction 8 of the column corresponded to HPLC fraction 5. A concentration-dependent suppression of HMG Co-A reductase activity and enhancement of FAS activity was noted within this range. Serum total and LDL cholesterol levels also fell in a dose-dependent response. […] In a companion experiment, using the same control birds, the effect of cholesterol inhibitor I at 5 ppm is compared to the effect of the petroleum ether solubles of HPBF at 20% equivalent on weight gain, HMG Co-A reductase and FAS activities, serum cholesterol and serum triglyceride levels (Table 2). […] Serum triglyceride levels reflected the influence of the diet on FAS activity. […] Cholesterol inhibitor I was a more powerful suppressor of LDL cholesterol (Table 2).
^1 Feeding period was 3 weeks; Time of killing was 0800; Data
expressed as mean ± SD; N = 9 chickens per group; HMGCoA reductase =
^3 nmoles of NADPH oxidized per minute per mg of cytosolic protein.

[2] = 2.5 ppm in corn diet, fed 3 weeks
[3] = 5.0 ppm in corn diet, fed 3 weeks
[4] = 10.0 ppm in corn diet, fed 3 weeks
[5] = 15.0 ppm in corn diet, fed 3 weeks
[6] = 20.0 ppm in corn diet, fed 3 weeks

β-Hydroxy-β Methylglutaryl-CoA Reductase ([1]; 5 μg/ml): 45 pmoles of mevalonic acid synth | β-Hydroxy-β Methylglutaryl-CoA Reductase ([1]; 10 μg/ml): 40 pmoles of mevalonic acid synth | β-Hydroxy-β Methylglutaryl-CoA Reductase ([1]; 15 μg/ml): 31 pmoles of mevalonic acid synth | β-Hydroxy-β Methylglutaryl-CoA Reductase ([1]; 20 μg/ml): 30 pmoles of mevalonic acid synth | β-Hydroxy-β Methylglutaryl-CoA Reductase ([1]; 25 μg/ml): 28 pmoles of mevalonic acid synth | β-Hydroxy-β Methylglutaryl-CoA Reductase ([1]; 50 μg/ml): 22 pmoles of mevalonic acid synth | β-Hydroxy-β Methylglutaryl-CoA Reductase ([1]; 100 μg/ml): 23 pmoles of mevalonic acid synth | remaining activity at 5 µg/mL ([1]; 0.25 h, 5 μg/ml, read-out: β-Hydroxy-β Methylglutaryl-CoA Reductase, percentage of control): 87% | remaining activity at 10 µg/mL ([1]; 0.25 h, 10 μg/ml, read-out: β-Hydroxy-β Methylglutaryl-CoA Reductase, percentage of control): 77% | remaining activity at 15 µg/mL ([1]; 0.25 h, 15 μg/ml, read-out: β-Hydroxy-β Methylglutaryl-CoA Reductase, percentage of control): 60% | remaining activity at 20 µg/mL ([1]; 0.25 h, 20 μg/ml, read-out: β-Hydroxy-β Methylglutaryl-CoA Reductase, percentage of control): 57% | remaining activity at 25 µg/mL ([1]; 0.25 h, 25 μg/ml, read-out: β-Hydroxy-β Methylglutaryl-CoA Reductase, percentage of control): 54% | remaining activity at 50 µg/mL ([1]; 0.25 h, 50 μg/ml, read-out: β-Hydroxy-β Methylglutaryl-CoA Reductase, percentage of control): 42% | remaining activity at 100 µg/mL ([1]; 0.25 h, 100 μg/ml, read-out: β-Hydroxy-β Methylglutaryl-CoA Reductase, percentage of control): 44%
SMILES: CC(C)=CCC/C(C)=C/CC/C(C)=C/CC[C@]1(C)CCc2c(C)c(O)c(C)c(C)c2O1 [Cholesterol inhibitor I, 2,5,7,8-tetramethyl-2 (4,8, 12-trimethyltrideca-3,7, 11-trienyl)chroman-6-ol]
Fatty Acid Synthetase, percentage of control (Fatty Acid Synthetase; [2]): 118 Percentage of respective contr | Fatty Acid Synthetase (Fatty Acid Synthetase; [2]): 190 ± 12 nmoles of NADPH oxidized per m | Fatty Acid Synthetase, percentage of control (Fatty Acid Synthetase; [3]): 120 Percentage of respective contr | Fatty Acid Synthetase (Fatty Acid Synthetase; [3]): 202 ± 10 nmoles of NADPH oxidized per m | Fatty Acid Synthetase, percentage of control (Fatty Acid Synthetase; [4]): 125 Percentage of respective contr | Fatty Acid Synthetase (Fatty Acid Synthetase; [4]): 210 ± 15 nmoles of NADPH oxidized per m | Fatty Acid Synthetase, percentage of control (Fatty Acid Synthetase; [5]): 130 Percentage of respective contr | Fatty Acid Synthetase (Fatty Acid Synthetase; [5]): 218 ± 17 nmoles of NADPH oxidized per m | Fatty Acid Synthetase, percentage of control (Fatty Acid Synthetase; [6]): 140 Percentage of respective contr | Fatty Acid Synthetase (Fatty Acid Synthetase; [6]): 235 ± 18 nmoles of NADPH oxidized per m | Fatty Acid Synthetase (Fatty Acid Synthetase; corn diet + 5 ppm (Table 2)): 215 ± 18 nmoles of NADPH oxidized per m
